Converted amounts (≈) assume the structure as drawn.
Assays:
E. coli = experiment: Shake flask growth (OD600) with supplementation of toxic substances; format: cell-based, Escherichia coli K12; details: already low concentrations
Source text: Several strains commonly used industrial biotechnology were investigated regarding their natural tolerance towards oAB and to organic solvents in question for later product extraction (e.g. 1-dodecanol or octanol). Furthermore, the influence of the used pH value was investigated. It was known from previous experiments that at least for E. coli the toxicity of aromatic compounds depends strongly on the pH value, probably because protonated acids can much more efficiently penetrate the cell membrane and accordingly their toxicity rises severely. The extraction of oAB in an organic phase is supposed to work best at low pH values, close to the isoelectric point of oAB. The most relevant host strains considered were: Escherichia coli K12, Corynebacterium glutamicum DSM 20300 (=ATCC 13032), Pseudomonas putida KT2440, Bacillus subtilis subsp. 168, Saccharomyces cerevisiae DSM 70449, and Pichia pastoris X33 (DSM 70382).
To investigate the chosen strains towards the mentioned characteristics shake flasks and small scale fermentation experiments were performed and the organisms were supplemented with the toxic substances (aminobenzoates, solvents) at differed concentrations, different pH values, and the behaviour of the strains was studied. […]

[1] = Solubility of AA in aniline; format: physicochemical
Source text: Aniline is a much better solvent for AA than dodecanol and, being also the product of the decarboxylation, its use presented great advantages compared to 1-dodecanol.

[2] = Solubility of oAB in fermentation broth slurry; format: physicochemical; details: fermentation broth of Corynebacterium glutamicum; room temperature, pH 4.5, fermentation broth
Protocol: An industrial sugar source was used for fermentation of Corynebacterium glutamicum. 100 ml of the broth with a content of 21.5 g/L glucose, 3.7 g/L lactate was mixed with 10 g anthranilic acid in a 250 ml laboratory reactor. […] Afterwards 9.12 g NaOH (32%) were added in 4 portions until a solution was present. […] Following […] HCl (37%) were added within 1 hour. By dosing of HCl first nucleation took place as from a pH-value of 5.8. The number of crystals increased during dosing. […] Afterwards the slurry was stirred for 1 hour. Finally the slurry was filtered.

[3] = Solubility of oAB in 1-dodecanol (solid liquid equilibrium); format: physicochemical
Protocol: The solubility of oAB in dodecanol was tested with increasing temperature.

## Nc1ccccc1C(=O)O [oAB, 2-aminobenzoic acid]
E. coli
  toxicity of o-aminobenzoate: toxic
[1]; 50° C.
  AA that could be dissolved in aniline: up to 40%
[1]; 90° C.
  AA that could be dissolved in aniline: up to 50%
[1]; room temperature (20° C.)
  AA that could be dissolved in aniline: up to 30%
[2]
  solubility: ~4500 µg/mL (≈ 32.8 mM)
[3]; 3 wt %, room temperature
  solubility in 1-dodecanol: perfectly soluble
[3]; 40 ° C.
  solubility of oAB in 1-dodecanol (concentration): 4.88 wt %
[3]; 68 ° C.
  solubility of oAB in 1-dodecanol (concentration): 13.10 wt %
[3]; 93 ° C.
  solubility of oAB in 1-dodecanol (concentration): 23.05 wt %
[3]; 111 ° C.
  solubility of oAB in 1-dodecanol (concentration): 35.34 wt %
[3]; 119 ° C.
  solubility of oAB in 1-dodecanol (concentration): 44.22 wt %
[3]; 123 ° C.
  solubility of oAB in 1-dodecanol (concentration): 50.93 wt %

From patent publication US10731187B2, “Recombinant strain producing O-aminobenzoate and fermentative production of aniline from renewable resources via 2-aminobenzoic acid” (Covestro Deutschland AG, priority 2014, dated 2020)
